Among the data in the Kinase Knowledgebase extract (Sharma et al. 2016) are IC50 values, retold here.

The structures appear in SMILES notation.

Sequence of EGFR (human) (P00533 whole entry, looked up): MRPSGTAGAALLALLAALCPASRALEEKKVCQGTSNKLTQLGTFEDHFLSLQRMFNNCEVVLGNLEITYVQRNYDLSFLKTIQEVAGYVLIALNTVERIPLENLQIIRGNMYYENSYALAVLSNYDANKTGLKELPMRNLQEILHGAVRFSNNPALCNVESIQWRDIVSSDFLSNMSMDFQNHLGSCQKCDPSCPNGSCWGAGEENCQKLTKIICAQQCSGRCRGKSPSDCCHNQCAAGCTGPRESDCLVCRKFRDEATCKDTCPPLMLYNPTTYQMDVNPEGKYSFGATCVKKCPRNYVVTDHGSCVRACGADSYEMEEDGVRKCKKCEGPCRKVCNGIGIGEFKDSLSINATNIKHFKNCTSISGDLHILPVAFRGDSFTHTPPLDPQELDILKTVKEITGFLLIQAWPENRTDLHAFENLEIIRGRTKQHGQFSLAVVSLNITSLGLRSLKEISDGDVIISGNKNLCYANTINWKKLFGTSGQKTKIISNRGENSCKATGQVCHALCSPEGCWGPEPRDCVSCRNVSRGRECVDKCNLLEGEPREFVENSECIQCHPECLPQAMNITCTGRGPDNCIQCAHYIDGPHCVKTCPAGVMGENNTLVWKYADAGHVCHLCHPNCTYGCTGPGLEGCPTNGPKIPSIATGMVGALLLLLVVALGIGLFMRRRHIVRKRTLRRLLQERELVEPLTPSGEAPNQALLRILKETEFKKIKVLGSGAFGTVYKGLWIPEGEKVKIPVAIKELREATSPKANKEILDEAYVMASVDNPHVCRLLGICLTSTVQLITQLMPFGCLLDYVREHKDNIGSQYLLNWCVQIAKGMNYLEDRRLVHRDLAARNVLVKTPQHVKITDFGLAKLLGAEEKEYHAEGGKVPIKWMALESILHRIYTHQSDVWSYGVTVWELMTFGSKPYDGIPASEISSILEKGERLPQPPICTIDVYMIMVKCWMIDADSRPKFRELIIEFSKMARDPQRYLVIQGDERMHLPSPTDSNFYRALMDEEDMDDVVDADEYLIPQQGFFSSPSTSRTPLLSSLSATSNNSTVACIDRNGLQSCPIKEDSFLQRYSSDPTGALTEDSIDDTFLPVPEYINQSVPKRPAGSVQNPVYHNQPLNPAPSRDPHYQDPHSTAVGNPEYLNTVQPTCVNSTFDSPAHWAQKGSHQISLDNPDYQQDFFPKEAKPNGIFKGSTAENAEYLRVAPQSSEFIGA

The assay has as its target EGFR (human) (UniProt P00533). The settings on record: a431.
Molecule `Nc1nc(Nc2cccc(Br)c2)c2ccn(Cc3ccccc3)c2n1` had an IC50 of 50.4 µM.
Turning to `COc1ccc(OC)c(Cn2ccc3c(Nc4cccc(Br)c4)nc(N)nc32)c1`, the IC50 was 40.6 µM.
For `Nc1nc(Nc2cccc(Br)c2)c2ccn(Cc3cccc4ccccc34)c2n1` the value was 36.3 µM; for `Nc1nc(Nc2cccc(Br)c2)c2ccn(Cc3ccc(-c4ccccc4)cc3)c2n1`, 13.3 µM; for `Nc1nc(Nc2cccc(Br)c2)c2ccn(Cc3ccc(Cl)cc3Cl)c2n1`, 15.3 µM.
As for `Nc1nc(Nc2cccc(Br)c2)c2ccn(Cc3ccccc3Cl)c2n1`, the figure is 88.4 µM; as for `Nc1nc(Nc2cccc(Br)c2)c2ccn(Cc3ccc(Cl)c(Cl)c3)c2n1`, 19.2 µM; as for `COc1cc(Cn2ccc3c(Nc4cccc(Br)c4)nc(N)nc32)cc(OC)c1OC`, 39 µM.
For `Nc1nc(Nc2cccc(Br)c2)c2ccn(Cc3ccc(Cl)cc3)c2n1` the value was 16.1 µM; for `Nc1nc(Nc2cccc(Br)c2)c2ccn(Cc3ccc4ccccc4c3)c2n1`, 20.4 µM; for `Cc1ccccc1Cn1ccc2c(Nc3cccc(Br)c3)nc(N)nc21`, 15.7 µM.

Usually IC50 stands for the concentration at which inhibition is half-maximal. A lower IC50 goes with greater potency.
